What all share (experiment): relative viability (nuclei count vs DMSO), 5 days (fraction); higher = more cells survive
Compound in assay [1]: C[As](C)SC[C@H](NC(=O)CC[C@H](N)C(=O)O)C(=O)NCC(=O)O [Darinaparsin] + CC(=O)c1c(C)c2cnc(Nc3ccc(N4CCNCC4)cn3)nc2n(C2CCCC2)c1=O [Palbociclib] (partner 0.5 µM)
In outline:
(§1)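 Relative viability equals treated-well nuclei counts divided by vehicle-well nuclei counts. Counts came from 4× images of lung cancer cell lines grown in 1536-well plates for 5 days after pin-tool dosing on the day after seeding. Dosing used one drug alone or a fixed anchor-drug dose plus five library-drug doses (not always all listed) in √10 steps, and values are medians of duplicate plates.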

Compound in assay [2]: C[As](C)SC[C@H](NC(=O)CC[C@H](N)C(=O)O)C(=O)NCC(=O)O [Darinaparsin] + COc1cc2c(Oc3ccc(NC(=O)C4(C(=O)Nc5ccc(F)cc5)CC4)cc3F)ccnc2cc1OCCCN1CCOCC1 [Foretinib] (partner 0.25 µM)
In a few lines:
as §1

Compound in assay [3]: C[As](C)SC[C@H](NC(=O)CC[C@H](N)C(=O)O)C(=O)NCC(=O)O [Darinaparsin] + CS(=O)(=O)N1CCN(Cc2cc3nc(-c4cccc5[nH]ncc45)nc(N4CCOCC4)c3s2)CC1 [Pictilisib] (partner 1 µM)
In a few lines:
as §1

Compound in assay [4]: CC1=C(C=C(C=C1)NC(=O)C2=CC(=CC=C2)C(C)(C)C#N)NC3=CC4=C(C=C3)N=CN(C4=O)C [AZ628] + COc1cccc2cc(-c3nc([C@H]4CC[C@H](C(=O)O)CC4)n4ncnc(N)c34)[nH]c12 [OSI-027] (partner 0.5 µM)
In outline: as §1

On to LU99A, for which the relative viability in assay [1] (first compound 0.08 µM) came to 0.425; in assay [1] (first compound 0.8 µM) it was 0.438; in assay [1] (first compound 2.53 µM) it was 0.354; in assay [1] (first compound 8 µM), 0.451; in assay [2] (first compound 0.08 µM), 0.833; in assay [2] (first compound 0.8 µM), 0.703. The relative viability came out at 0.806 in assay [2] (first compound 2.53 µM); 0.819 in assay [2] (first compound 8 µM); 0.336 in assay [3] (first compound 0.08 µM); 0.313 in assay [3] (first compound 0.8 µM); 0.294 in assay [3] (first compound 2.53 µM); 0.322 in assay [3] (first compound 8 µM). Also, the relative viability in assay [4] (first compound 0.08 µM) is 0.271; in assay [4] (first compound 0.253 µM), 0.313; in assay [4] (first compound 0.8 µM) it was 0.268; in assay [4] (first compound 2.53 µM) it was 0.288; in assay [4] (first compound 8 µM) it was 0.239.

Consider NCI-H661, for which the relative viability in assay [1] (first compound 0.08 µM) came to 0.385; in assay [1] (first compound 0.8 µM) it was 0.355; in assay [1] (first compound 2.53 µM) it was 0.442; in assay [1] (first compound 8 µM) it was 0.404; in assay [2] (first compound 0.08 µM) it was 1.01; in assay [2] (first compound 0.8 µM) it was 0.995. Further, the relative viability in assay [2] (first compound 2.53 µM) was found to be 1.08; in assay [2] (first compound 8 µM), 1.26; in assay [3] (first compound 0.08 µM), 0.422; in assay [3] (first compound 0.8 µM), 0.4; in assay [3] (first compound 2.53 µM), 0.491; in assay [3] (first compound 8 µM), 0.42. Besides, the relative viability in assay [4] (first compound 0.08 µM) was found to be 0.631; in assay [4] (first compound 0.253 µM), 0.617; in assay [4] (first compound 0.8 µM), 0.513; in assay [4] (first compound 2.53 µM) it was 0.593; in assay [4] (first compound 8 µM), 0.47.

On to NCI-H3122, for which the relative viability in assay [1] (first compound 0.08 µM) worked out at 0.19; in assay [1] (first compound 0.8 µM), 0.223; in assay [1] (first compound 2.53 µM), 0.223; in assay [1] (first compound 8 µM), 0.201; in assay [2] (first compound 0.08 µM), 1.03; in assay [2] (first compound 0.8 µM), 0.964. Further, the relative viability in assay [2] (first compound 2.53 µM) was determined as 0.94; in assay [2] (first compound 8 µM), 0.789; in assay [3] (first compound 0.08 µM) it was 0.711; in assay [3] (first compound 0.8 µM), 0.583; in assay [3] (first compound 2.53 µM), 0.636; in assay [3] (first compound 8 µM), 0.707. Besides, the relative viability in assay [4] (first compound 0.08 µM) worked out at 0.559; in assay [4] (first compound 0.253 µM), 0.344; in assay [4] (first compound 0.8 µM), 0.287; in assay [4] (first compound 2.53 µM), 0.267; in assay [4] (first compound 8 µM), 0.16.

With LC-2-ad, the relative viability came to 0.554 in assay [1] (first compound 0.08 µM); 0.523 in assay [1] (first compound 0.8 µM); 0.383 in assay [1] (first compound 2.53 µM); 0.602 in assay [1] (first compound 8 µM); 0.949 in assay [2] (first compound 0.08 µM); 1.02 in assay [2] (first compound 0.8 µM). Also, the relative viability in assay [2] (first compound 2.53 µM) is 0.987; in assay [2] (first compound 8 µM), 0.836; in assay [3] (first compound 0.08 µM), 0.564; in assay [3] (first compound 0.8 µM), 0.456; in assay [3] (first compound 2.53 µM) it was 0.32; in assay [3] (first compound 8 µM), 0.533. Besides, the relative viability came to 0.817 in assay [4] (first compound 0.08 µM); 0.87 in assay [4] (first compound 0.253 µM); 0.779 in assay [4] (first compound 0.8 µM); 0.821 in assay [4] (first compound 2.53 µM); 0.703 in assay [4] (first compound 8 µM).

Consider HCC-78, for which the relative viability was determined as 0.46 in assay [1] (first compound 0.08 µM); 0.509 in assay [1] (first compound 0.8 µM); 0.475 in assay [1] (first compound 2.53 µM); 0.503 in assay [1] (first compound 8 µM); 0.555 in assay [2] (first compound 0.08 µM); 0.492 in assay [2] (first compound 0.8 µM). For the same cell line, the relative viability is 0.53 in assay [2] (first compound 2.53 µM); 0.483 in assay [2] (first compound 8 µM); 0.191 in assay [3] (first compound 0.08 µM); 0.228 in assay [3] (first compound 0.8 µM); 0.246 in assay [3] (first compound 2.53 µM); 0.267 in assay [3] (first compound 8 µM). Also, the relative viability is 0.427 in assay [4] (first compound 0.08 µM); 0.37 in assay [4] (first compound 0.253 µM); 0.391 in assay [4] (first compound 0.8 µM); 0.341 in assay [4] (first compound 2.53 µM); 0.399 in assay [4] (first compound 8 µM).

On to SW 1573, for which the relative viability amounted to 0.412 in assay [1] (first compound 0.08 µM); 0.353 in assay [1] (first compound 0.8 µM); 0.355 in assay [1] (first compound 2.53 µM); 0.488 in assay [1] (first compound 8 µM); 1.05 in assay [2] (first compound 0.08 µM); 1.01 in assay [2] (first compound 0.8 µM). The relative viability in assay [2] (first compound 2.53 µM) was determined as 0.867; in assay [2] (first compound 8 µM), 1.33; in assay [3] (first compound 0.08 µM), 0.621; in assay [3] (first compound 0.8 µM), 0.545; in assay [3] (first compound 2.53 µM) it was 0.49; in assay [3] (first compound 8 µM) it was 0.495. Besides, the relative viability in assay [4] (first compound 0.08 µM) came to 0.669; in assay [4] (first compound 0.253 µM), 0.555; in assay [4] (first compound 0.8 µM), 0.359; in assay [4] (first compound 2.53 µM), 0.362; in assay [4] (first compound 8 µM), 0.26.

Regarding NCI-H358, the relative viability in assay [1] (first compound 0.08 µM) turned out to be 0.141; in assay [1] (first compound 0.8 µM) it was 0.128; in assay [1] (first compound 2.53 µM), 0.127; in assay [1] (first compound 8 µM) it was 0.139; in assay [2] (first compound 0.08 µM), 0.758; in assay [2] (first compound 0.8 µM), 0.693. Also, the relative viability in assay [2] (first compound 2.53 µM) was 0.648; in assay [2] (first compound 8 µM), 0.799; in assay [3] (first compound 0.08 µM), 0.315; in assay [3] (first compound 0.8 µM), 0.319; in assay [3] (first compound 2.53 µM), 0.343; in assay [3] (first compound 8 µM), 0.319. In addition, the relative viability in assay [4] (first compound 0.08 µM) stood at 0.647; in assay [4] (first compound 0.253 µM), 0.602; in assay [4] (first compound 0.8 µM), 0.403; in assay [4] (first compound 2.53 µM), 0.354; in assay [4] (first compound 8 µM), 0.286.
